From patent US6365634B1, “Naturally occurring compounds and their derivatives as cyclooxygenase 2 and/or 5-lipoxygenase inhibitors” (C-P Technology Limited Partnership, priority 1997, dated 2002)

Assays:
[1] = tested on: human keratinocyte PGE2 production; assay: Cell-based COX II assay: PGE2 production by cultured human foreskin keratinocytes (enzyme immunoassay); conditions: 5, 1.0, 0.2 and 0.04 uM, 24 hours, high calcium medium
Method: The ability of dehydroabietic acid methyl ester to inhibit the enzymatic activities of COX II and 5-LO was tested using primary cultures of human foreskin keratinocytes. Briefly, human keratinocytes were plated in 48-well plates (Nunc) at an initial density of 2.5×10^4 cells per well. The cultures were maintained in medium 154XP (Cascade Biologics) to which human keratinocyte growth supplement (Cascade Biologics) was added. Cultures were plated initially in medium 154XP containing 0.07 mM CaCl2. Upon reaching […] confluency, the media was exchanged with high calcium medium 154XP containing 1.2 mM CaCl2. Previous studies have shown that an increase in extracellular Ca^2+concentration induces the differentiation of cultured keratinocytes with a concomitant increase in the expression of COX II protein and COX II mRNA with no apparent effect on COX I expression (Leong, J., Hughes-Fulford, M., Rakhlin, A., Maclouf, J., and Goldyne, M., (1996), Exp. Cell Res., V224, p79). Twenty-four hours after switching to the high calcium media, duplicate wells were treated with dehydroabietic acid methyl ester serially diluted in ethanol to produce final concentrations of 5, 1.0, 0.2, and 0.04 uM. Companion cultures were treated with an identical dilution series of the Merck COX II-specific inhibitor DFU. Twenty-four hours later, samples were removed from each treated well (as well as vehicle-treated control wells) and the amount of PGE2 (a product of the COX II pathway) was quantified using a PGE2-specific enzyme immunoassay (Cayman Chemical). ), As was done with the previously described biochemical assays (COX I, COX II, 5-LO, and 15-LO), the percent inhibition was calculated based on a comparison between vehicle treated control cultures and cultures treated with dehydroabietic acid methyl ester or DFU (see Fractionation and Bioassay Analysis of Fractions Derived from Extract-8 above).
The ability of 4-cumylphenol to inhibit the enzymatic activity of COX II was tested using primary cultures of human foreskin keratinocytes. These cell studies were performed in an identical manner to the studies described in Example 6. […] Twenty-four hours later, samples were removed from each treated well (as well as vehicle-treated control wells) and the amount of PGE2 (a product of the COX II pathway) was quantified using a PGE2-specific enzyme immunoassay (Cayman Chemical). ), as was done with the previously described COX I, COX II, and 15-LO biochemical assays (see Example 2B). The percent inhibition was calculated based on a comparison between vehicle treated control cultures and cultures treated with 4-cumylphenol or DFU. […]
To evaluate the biological activities of 3-methoxy aniline, sufficient quantities of the compound were synthesized as detailed in Example 1C (above). […]

human recombinant COX II = biological target: T1, human recombinant COX II (Homo sapiens, UniProt P35354); assay: COX II biochemical assay (3H-arachidonic acid conversion, TLC quantitation); conditions: read-out: Percent Inhibition of COX II
T1 construct: purchased Oxford Chemical
T1 sequence (P35354 18-604): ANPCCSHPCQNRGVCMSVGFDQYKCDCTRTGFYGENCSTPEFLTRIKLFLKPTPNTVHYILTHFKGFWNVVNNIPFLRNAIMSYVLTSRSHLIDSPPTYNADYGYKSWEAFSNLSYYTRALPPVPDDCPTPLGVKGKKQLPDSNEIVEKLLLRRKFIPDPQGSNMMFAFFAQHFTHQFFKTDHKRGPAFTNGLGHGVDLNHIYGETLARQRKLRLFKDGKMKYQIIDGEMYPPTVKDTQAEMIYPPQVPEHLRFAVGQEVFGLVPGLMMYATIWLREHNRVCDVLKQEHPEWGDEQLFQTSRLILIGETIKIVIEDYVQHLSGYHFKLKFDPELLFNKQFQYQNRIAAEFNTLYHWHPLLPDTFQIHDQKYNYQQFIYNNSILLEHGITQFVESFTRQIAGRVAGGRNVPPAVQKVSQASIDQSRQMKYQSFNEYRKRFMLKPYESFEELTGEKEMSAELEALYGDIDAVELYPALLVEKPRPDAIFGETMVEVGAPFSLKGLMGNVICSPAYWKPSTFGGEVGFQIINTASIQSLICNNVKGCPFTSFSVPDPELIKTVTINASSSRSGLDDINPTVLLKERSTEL
Method: Two units of recombinant COX II enzyme (corresponding to 0.8 ug total protein) was added followed by 5 uL aliquots of the peat bog extracts yielding a final concentration of the peat extracts of 25 ug/ml. All samples were run in duplicate. […] Reactions were initiated by the addition of ^3H-arachidonic acid (DuPont-NEN) at a final concentration of 50 uM. The reactions were maintained for 5 minutes at 37° C. and stopped by the addition of ice-cold methanol/acetic acid (10:1 v/v).
The assessment of cyclooxygenase activity (both COX I and II) in the presence and absence of the peat bog extracts was based on the quantitation of tlhe radiolabeled arachidonic acid metabolites prostaglandin A2 (PGA2), PGE2, and PGF2-alpha. To do this, a 50 uL sample of each reaction solution was separated via TLC on LK6DF silica plates co-spotted with arachidonic acid, PGA2, and PGF2-alpha and developed in hexane/isopropyl alcohol/ acetic acid (85:15:1 v/v). The bands were visualized by UV-vis or I2 staining and scraped into scintillation vials for quantitation. […] The total enzyme activity (At), the corrected enzyme activity in the presence of an inhibitor (Ai), and % inhibition were calculated by the following equations:
3) Percent Inhibition=100 (1−Ai/ At)

human keratinocytes [2] = assay: Lactate dehydrogenase (LDH) release toxicity assay; type: cell-based; conditions: highest value of any culture treated with 5, 1.0, 0.2 or 0.04 uM
Method: To address the possibility that the inhibition of both PGE2 and LTB4 production by human keratinocytes treated with dehydroabietic acid methyl ester was […], a cell lactate dehydrogenase toxicity assay (Fisher Scientific) was performed. Briefly, lactate dehydrogenase (LDH) is found intracellularly and is released only in response to toxic stimuli and/or cell death. The amount of LDH released into the media of cultured cells is indicative of the degree of toxicity occurring in that culture. To do the assay, 48-well plates of cultured human keratinocytes (as described above for the PGE2 assay) were prepared and treated with the same concentrations of dehydroabietic acid methyl ester as described above for the PGE2 and LTB4 assays. One hour prior to harvesting culture media samples from wells treated with dehydroabietic acid methyl ester, duplicate wells were treated with a cell lysis buffer (Fisher Scientific) that caused 100% cell death to occur in the treated wells. After culture media samples were collected from all wells, the amount of LDH present in each was determined using a colorometric assay (Fisher Scientific). […] The amount of LDH released into the media of cultures treated with dehydroabietic acid methyl ester as well as vehicle-control media was determined using the colorometric assay and expressed as a percentage of that released by the 100% cell death wells.
To address the possibility that the inhibition of PGE2 production by human keratinocytes treated with 4-cumylphenol was due to toxicity, a cell lactate dehydrogenase toxicity assay (Fisher Scientific) was performed. […] After culture media samples were collected from all wells, the amount of LDH present in each was determined using a colorometric assay (Fisher Scientific). […] The amount of LDH released into the media of cultures treated with dehydroabietic acid methyl ester as well as vehicle-control media was determined using the colorometric assay and expressed as a percentage of that released by the 100% cell death wells. […]

human keratinocytes [3] = assay: Microscopic examination of treated keratinocyte cultures; type: cell-based
[4] = tested on: human keratinocyte LTB4 production; assay: Cell-based 5-LO assay: LTB4 production by cultured human keratinocytes (enzyme immunoassay); conditions: 5, 1.0, 0.2 and 0.04 uM, 24 hours, high calcium medium
Description: In addition to assessing the effect of dehydroabietic acid methyl ester on the production of PGE2 by human keratinocytes, the human keratinocyte culture system was also used to assess for the inhibition of LTB4 production. Keratinocytes have not been used as extensively as other cell types for 5-LO studies, however, human keratinocytes produce appreciable amounts of LTB4 and production of this eicosanoid by cultured keratinocytes is inhibited by known inhibitors of 5-LO (see FIG. 11). To assess for inhibition of LTB4 production, human keratinocytes were cultured as described above. Following introduction of the high calcium media, the identical dilution series of dehydroabietic acid methyl ester as described above in the PGE2 study was added to duplicate wells of keratinocytes. Twenty-four hours later culture media samples were removed from each well and the amount of LTB4 in each sample determined using an enzyme immunoassay specific for LTB4 (Cayman Chemical). As was done with the PGE2 assay described above, the percent inhibition was calculated based on a comparison between vehicle treated control cultures and cultures treated with dehydroabietic acid methyl ester or Rev 5901 (a specific 5-LO inhibitor; Cayman Chemical).

CC1(C)OC(=O)C(c2cccc(F)c2)=C1c1ccc(S(C)(=O)=O)cc1 [DFU, reference compound]
inhibition of PGE2 production by cultured human keratinocytes [1]: Dose-dependent inhibition

CS(=O)(=O)Nc1ccc([N+](=O)[O-])cc1Oc1ccccc1 [Nimesulide, reference compound]
inhibition at 250 µM (human recombinant COX II): 13.3%

COc1cccc(NC(=O)C(C)(C)C)c1 [Fraction 3-M-A, propanamide, N-(3-methoxyphenyl)2,2-dimethyl]
percent toxicity (LDH released) versus the 100% cell death control (human keratinocytes [2]): ≤ 10% | inhibition of PGE2 production by cultured human keratinocytes [1]: inhibited the production of PGE2 | toxicity when treated cultures were examined microscopically (human keratinocytes [3]): lack of toxicity

CCCCCC(O)c1cccc(OCc2ccc3ccccc3n2)c1 (stereo not drawn) [REV 5901, reference compound]
inhibition of LTB4 production by cultured human keratinocytes [4]: dose-dependent inhibition
